# Key:
# Assay type in all cases: biochemical
# [1] = biological target: T1, CymA (Shewanella oneidensis, UniProt Q8E8S0); experiment: cyclic voltammetry, catalytic oxidation current with dithionite (menaquinone reduction); settings: 1 mM dithionite, 1% (w/w) MQ-7, pH 7.4, 21 °C
# T1 construct: full-length recombinant tetraheme CymA (24 kDa), isolated from MR-1, reconstituted in POPC/cardiolipin membrane, no Fcc3
# T1 sequence (Q8E8S0 1-187): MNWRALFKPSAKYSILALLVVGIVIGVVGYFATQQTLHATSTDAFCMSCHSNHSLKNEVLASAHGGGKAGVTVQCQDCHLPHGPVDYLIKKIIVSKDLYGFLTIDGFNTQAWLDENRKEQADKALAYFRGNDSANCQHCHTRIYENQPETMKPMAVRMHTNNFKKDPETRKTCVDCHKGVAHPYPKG
# [2] = biological target: T2, CymA-Fcc3 complex (Shewanella oneidensis, UniProt Q8E8S0); experiment: cyclic voltammetry, catalytic fumarate reduction current on membrane-modified gold electrode; settings: 1 mM fumarate, 1% (w/w) MQ-7, pH 7.4, 21 °C; competitive quinol-site inhibitor
# T2 construct: isolated from MR-1; with Fumarate reductase (cytochrome), flavocytochrome c3
# T2 sequence (Q8E8S0 1-187): T1 sequence (Q8E8S0 1-187)
# T2 sequence (P83223 26-596 partner): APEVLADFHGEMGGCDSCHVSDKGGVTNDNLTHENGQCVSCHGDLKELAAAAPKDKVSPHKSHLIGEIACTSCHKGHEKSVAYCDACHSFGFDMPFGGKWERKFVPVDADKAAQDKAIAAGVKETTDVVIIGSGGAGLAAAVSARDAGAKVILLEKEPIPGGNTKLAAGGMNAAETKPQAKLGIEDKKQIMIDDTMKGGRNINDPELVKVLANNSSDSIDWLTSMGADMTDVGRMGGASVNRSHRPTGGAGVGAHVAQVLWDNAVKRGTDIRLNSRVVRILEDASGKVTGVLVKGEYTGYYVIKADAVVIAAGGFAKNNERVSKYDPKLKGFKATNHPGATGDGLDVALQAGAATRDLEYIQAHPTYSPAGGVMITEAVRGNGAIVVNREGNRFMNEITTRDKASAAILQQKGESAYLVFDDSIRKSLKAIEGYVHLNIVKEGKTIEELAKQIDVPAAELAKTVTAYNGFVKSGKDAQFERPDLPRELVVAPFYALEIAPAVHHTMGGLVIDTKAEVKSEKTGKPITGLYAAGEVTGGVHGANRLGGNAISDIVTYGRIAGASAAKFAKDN
# [3] = biological target: T1, CymA; experiment: cyclic voltammetry, dithionite as reductant; settings: 1 mM dithionite, pH 7.4, 21 °C, no Fcc3
# [4] = biological target: T3, Fcc3 (Shewanella oneidensis, UniProt P83223); experiment: cyclic voltammetry, catalytic reduction current; settings: 1 mM fumarate, electrons from MQ-7 via CymA, pH 7.4, 21 °C
# T3 construct: gene fccA; monomer in solution; with Membrane anchored tetraheme cytochrome c CymA
# T3 sequence (P83223 26-596): T2 sequence (P83223 26-596 partner)
# T3 sequence (Q8E8S0 1-187 partner): T1 sequence (Q8E8S0 1-187)
# [5] = biological target: T2, CymA-Fcc3 complex; experiment: cyclic voltammetry, membrane-modified gold electrode, MQ-7 content varied; settings: fumarate 1 mM as acceptor, pH 7.4, 21 °C; MQ-7 in membrane as % (w/w); Michaelis-Menten fit, constant not given
compound,measurement,setting,value
"CCCCCCCc1cc(O)c2ccccc2[n+]1[O-] [2-n-heptyl-4-hydroxyquinoline N-oxide, 2-n-Heptyl-4-hydroxyquinoline N-oxide]",inhibition at 10 μM,[1],a catalytic oxidation signal appears that is inhibited by addition of HQNO
same,inhibition at 10 μM,[2],The addition of HQNO inhibited catalytic fumarate reduction (Figure 2B)
CC(C)=CCC/C(C)=C/CC/C(C)=C/CC/C(C)=C/CC/C(C)=C/CC/C(C)=C/CC/C(C)=C/CC1=C(C)C(=O)c2ccccc2C1=O [Menaquinone-7],"cyclic voltammetry, dithionite as reductant",[3],CymA is only able to reduce MQ-7 in the absence of Fcc3
O=C(O)/C=C/C(=O)O [fumarate],"cyclic voltammetry, catalytic reduction current",[4],addition of fumarate had a large effect on the appearance of the CV
CC(C)=CCC/C(C)=C/CC/C(C)=C/CC/C(C)=C/CC/C(C)=C/CC/C(C)=C/CC/C(C)=C/Cc1c(C)c(O)c2ccccc2c1O [menaquinol-7],"cyclic voltammetry, membrane-modified gold electrode, MQ-7 content varied",[5],the CymA-Fcc3 complex is able to oxidize MQ-7 in SSMs

# Reference: PMC3823026, “Protein–Protein Interaction Regulates the Direction of Catalysis and Electron Transfer in a Redox Enzyme Complex” (Journal of the American Chemical Society, 2013)
